From publication PMC6474336, “Cloning and characterization of a tyrosine decarboxylase involved in the biosynthesis of galanthamine in Lycoris aurea” (PeerJ, 2019) come the findings set out here.

Test [1] concerns LaTYDC1. Description: HPLC of tyramine formed. It counts as biochemical, Lycoris aurea. The note with it: pyridoxal-5-phosphate, 50 mM Tris-HCl pH 8.0, 37 °C; GST fusion; Table 1 labels this row 'Tyramine' and prints error ± 0.12.
The subject of test [2] is LaTYDC1. Description: HPLC of dopamine formed. In kind it is biochemical, Lycoris aurea. Conditions: pyridoxal-5-phosphate, 50 mM Tris-HCl pH 8.0, 37 °C; GST fusion. An excerpt:
HPLC of dopamine formed on LaTYDC1

Broadly, the Km is the concentration of substrate that gives half-maximal velocity. As for `N[C@@H](Cc1ccc(O)cc1)C(=O)O` [L-tyrosine], the Km in test [1] is 602 ± 38 µM.

Turning to `N[C@@H](Cc1ccc(O)c(O)c1)C(=O)O` [L-Dopa, 3,4-dihydroxy-L-phenylalanine], in test [2], the Km turned out to be 966 ± 79 µM.
